From US20250289829A1, “DEUBIQUITINASE INHIBITOR AND USE THEREOF” (CHASER THERAPEUTICS, INC., priority 2022, published 2025)

Experiments:
USP28 = target: T1, USP28 (Homo sapiens, UniProt Q96RU2); assay: USP28 activity by the ubiquitin-rhodamine 110 (Ub-Rh110) method; type: biochemical; settings: purified USP28 4 nM, Ub-Rh110 125 nM, 30 min preincubation; read-out: Inhibitory activity (IC50) USP28
T1 construct: purchased R&D Systems China Co., Ltd. (R&D Systems)
T1 sequence (Q96RU2 1-1077): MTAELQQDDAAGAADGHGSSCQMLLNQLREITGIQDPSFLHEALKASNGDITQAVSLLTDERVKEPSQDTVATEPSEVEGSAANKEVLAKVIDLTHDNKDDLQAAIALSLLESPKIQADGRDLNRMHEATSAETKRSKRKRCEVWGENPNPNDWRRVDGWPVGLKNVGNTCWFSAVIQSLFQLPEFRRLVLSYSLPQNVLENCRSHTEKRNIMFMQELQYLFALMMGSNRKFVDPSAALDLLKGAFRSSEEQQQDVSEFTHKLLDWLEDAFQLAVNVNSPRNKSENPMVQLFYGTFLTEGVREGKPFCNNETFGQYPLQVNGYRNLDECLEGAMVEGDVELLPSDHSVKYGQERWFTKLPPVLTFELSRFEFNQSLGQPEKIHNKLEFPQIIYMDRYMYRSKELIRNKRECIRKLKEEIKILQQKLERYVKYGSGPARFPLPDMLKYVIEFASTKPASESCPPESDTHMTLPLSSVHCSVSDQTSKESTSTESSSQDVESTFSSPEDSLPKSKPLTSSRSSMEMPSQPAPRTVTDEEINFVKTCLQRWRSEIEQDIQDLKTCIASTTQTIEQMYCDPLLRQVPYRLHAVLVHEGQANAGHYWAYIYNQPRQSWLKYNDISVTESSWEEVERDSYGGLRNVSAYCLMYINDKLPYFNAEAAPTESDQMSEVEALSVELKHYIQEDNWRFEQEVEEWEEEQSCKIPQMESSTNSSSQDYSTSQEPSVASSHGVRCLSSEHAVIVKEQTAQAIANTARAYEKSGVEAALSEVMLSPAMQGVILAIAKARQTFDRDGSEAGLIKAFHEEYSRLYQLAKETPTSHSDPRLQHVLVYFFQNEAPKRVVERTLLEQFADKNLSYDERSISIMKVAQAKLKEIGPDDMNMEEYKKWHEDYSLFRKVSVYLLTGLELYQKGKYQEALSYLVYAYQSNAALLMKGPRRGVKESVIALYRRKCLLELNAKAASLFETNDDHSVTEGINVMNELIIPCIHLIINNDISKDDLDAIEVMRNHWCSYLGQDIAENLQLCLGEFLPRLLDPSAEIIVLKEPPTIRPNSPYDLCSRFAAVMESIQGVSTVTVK
Protocol: USP28 activity was determined by the ubiquitin-rhodamine 110 (Ub-Rh110) method.
Purified USP28 and a substrate Ub-Rh110 used for determining deubiquitinase activity were purchased from R&D Systems China Co., Ltd. (R&D Systems). First, test compounds were each dissolved in DMSO to prepare a 10 mM stock solution, and then the stock solution was diluted to the desired concentration (with a DMSO content of 0.5%) with a buffer solution [containing 20 mM Tris-HCl (pH 8.0), 2 mM CaCl2), 3 mM BME, 0.01% Prionex, and 0.01% Triton X-100]. The prepared test compound solutions at different concentrations were mixed uniformly with USP28 (final concentration: 4 nM) in a 96-well plate, and the mixture was incubated at r. t. for 30 min before the addition of Ub-Rh110 to 125 nM. The final volume of the whole reaction system was 20 μL. The released fluorescence (excitation wavelength: 485 nm, emission wavelength: 535 nm) was detected immediately on a microplate reader after the addition of the substrate. A blank control group (DMSO instead of test compound) and a substrate group (no USP28 added) were set simultaneously. The inhibitory rates of the test compounds for USP28 were calculated according to the following formula:
Inhibition %=(1−[(fluorescence valuetest compound−fluorescence valuesubstrate)/(fluorescence valuecontrol−fluorescence valuesubstrate])×100%
According to the inhibitory rates of the test compounds for USP28 under different concentrations, IC50 values were calculated.
(§1) With reference to Example 2 and Example 3, USP28 and USP25 inhibitor activity tests were performed on representative example compounds of the present disclosure and the following comparative compound structures.

USP25 = target: T2, USP25 (Homo sapiens, UniProt Q9UHP3); assay: USP25 activity by the Ub-Rh110 method; type: biochemical; settings: purified USP25 15 nM, Ub-Rh110 125 nM; read-out: Inhibitory activity (IC50) USP25
T2 construct: purchased R&D Systems
T2 sequence (Q9UHP3 1-1055): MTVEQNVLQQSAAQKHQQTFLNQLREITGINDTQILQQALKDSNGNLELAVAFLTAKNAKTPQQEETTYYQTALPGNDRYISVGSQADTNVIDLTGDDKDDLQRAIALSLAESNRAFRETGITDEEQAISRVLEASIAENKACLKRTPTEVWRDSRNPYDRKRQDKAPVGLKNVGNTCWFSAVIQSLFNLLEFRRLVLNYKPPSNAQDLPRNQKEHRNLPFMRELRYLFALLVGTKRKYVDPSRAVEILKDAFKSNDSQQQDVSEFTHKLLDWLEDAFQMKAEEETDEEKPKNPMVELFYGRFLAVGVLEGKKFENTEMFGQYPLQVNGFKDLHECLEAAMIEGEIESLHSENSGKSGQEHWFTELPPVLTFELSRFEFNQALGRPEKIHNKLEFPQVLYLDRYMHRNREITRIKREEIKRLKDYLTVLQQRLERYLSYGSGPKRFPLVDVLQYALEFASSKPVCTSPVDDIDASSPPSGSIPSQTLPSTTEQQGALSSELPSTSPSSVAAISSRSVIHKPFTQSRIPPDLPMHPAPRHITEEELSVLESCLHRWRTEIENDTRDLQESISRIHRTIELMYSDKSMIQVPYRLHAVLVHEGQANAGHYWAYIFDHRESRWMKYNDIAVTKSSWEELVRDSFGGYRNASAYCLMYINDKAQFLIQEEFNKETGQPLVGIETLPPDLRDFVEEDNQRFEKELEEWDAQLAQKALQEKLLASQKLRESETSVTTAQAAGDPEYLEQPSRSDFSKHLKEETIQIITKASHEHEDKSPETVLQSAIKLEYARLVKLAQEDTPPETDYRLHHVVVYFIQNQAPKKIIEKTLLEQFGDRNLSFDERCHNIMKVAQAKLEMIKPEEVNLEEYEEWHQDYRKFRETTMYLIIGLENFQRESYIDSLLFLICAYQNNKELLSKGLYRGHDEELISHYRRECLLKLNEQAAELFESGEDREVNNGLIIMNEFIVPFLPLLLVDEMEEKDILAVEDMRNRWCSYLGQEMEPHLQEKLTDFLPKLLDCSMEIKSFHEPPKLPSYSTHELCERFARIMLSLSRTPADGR
Protocol: USP25 activity was determined by the Ub-Rh110 method.
Purified USP25 was purchased from R&D Systems. The experimental procedures were the same as those in Example 2. The final concentration of USP25 was 15 nM, the final concentration of the substrate Ub-Rh110 was 125 nM, and the final volume of the whole reaction system was 20 μL.
as §1

CCn1ccc2c(NC)c(C(=O)NC[C@@H](C)c3ccc(N4CC5CCC(C4)N5)cc3)cnc21 [Compound I-22]
IC50 (USP28): 50 to 500 nM
IC50 (USP25): 500 to 1000 nM

CCCNc1c(C(=O)NCCc2ccc(N3CC4CCC(C3)N4)cc2)cnc2c1ccn2CC [Compound I-04]
IC50 (USP28): 1000 to 10000 nM
IC50 (USP25): > 10000 nM

CCCn1ccc2c(NC)c(C(=O)NCCc3ccc(N4CC5CCC(C4)N5)cc3)cnc21 [Compound I-13]
IC50 (USP28): < 50 nM
IC50 (USP25): < 50 nM

CCn1ccc2c(NC)c(C(=O)N[C@@H]3CCc4cc(N5CC6CCC(C5)N6)ccc4C3)cnc21 [Compound I-26]
IC50 (USP28): 50 to 500 nM
IC50 (USP25): 500 to 1000 nM

CCn1ccc2c(NC)c(C(=O)NCCc3ccc(OC)c(OC)c3)cnc21 [Compound I-09]
IC50 (USP28): 50 to 500 nM
IC50 (USP25): 50 to 500 nM

CCNc1c(C(=O)NCCc2ccc(N3CC4CCC(C3)N4)cc2)cnc2c1ccn2CC [Compound I-03]
IC50 (USP28): 500 to 1000 nM
IC50 (USP25): 500 to 1000 nM

CCn1ccc2c(OC)c(C(=O)NCCc3ccc(N4CCNCC4)cc3)cnc21 [Compound I-33]
IC50 (USP28): 50 to 500 nM
IC50 (USP25): 1000 to 10000 nM

CCn1ccc2c(NC)c(C(=O)NCCc3ccc(N4CCNCC4)cc3)cnc21 [Compound I-07]
IC50 (USP28): < 50 nM
IC50 (USP25): < 50 nM

CCn1ccc2c(NC)c(C(=O)NCCc3ccc(C4CC5CCC(C4)N5)cc3)cnc21 (stereo not shown) [Compound I-17]
IC50 (USP28): < 50 nM
IC50 (USP25): 50 to 500 nM

CCn1ccc2c(NC)c(C(=O)NCCc3ccc(C4CCNCC4)cc3)cnc21 [Compound I-20]
IC50 (USP28): < 50 nM
IC50 (USP25): 50 to 500 nM

CCn1ccc2c(NC)c(C(=O)NCCc3c[nH]c4ccccc34)cnc21 [Compound I-08]
IC50 (USP28): < 50 nM
IC50 (USP25): 50 to 500 nM

CCn1ccc2c(NC)c(C(=O)NCCc3ccc(N4CCNCC4)cc3)nnc21 [Compound I-28]
IC50 (USP28): < 50 nM
IC50 (USP25): < 50 nM

CNc1c(C(=O)NCCc2ccc(N3CCNCC3)cc2)cnc2c1ccn2CC(F)(F)F [Compound I-16]
IC50 (USP28): < 50 nM
IC50 (USP25): < 50 nM

CNc1c(C(=O)NCCc2ccc(N3CC4CCC(C3)N4)cc2)cnc2[nH]ccc12 [Compound I-11]
IC50 (USP28): 50 to 500 nM
IC50 (USP25): 500 to 1000 nM

CCn1ccc2c(NC)c(C(=O)NCCc3ccc(C4C5CCC4CNC5)cc3)cnc21 (stereo not shown) [Compound I-18]
IC50 (USP25): 50 to 500 nM

CCn1ccc2c(NC)c(C(=O)NCCc3ccc(N4C5CCC4CNC5)cc3)cnc21 [Compound I-19]
IC50 (USP28): < 50 nM
IC50 (USP25): 50 to 500 nM

CCn1ccc2c(NC)c(C(=O)NCCc3ccc(N4CC5CCC(C4)N5)cc3)cnc21 [Compound I-02, N-4-(3,8-diazabicyclo[3.2.1]octan-3-yl)phenethyl-1-ethyl-4-methylamino-1H-pyrrolo[2,3-b]pyridine-5-carboxamide]
IC50 (USP28): < 50 nM
IC50 (USP25): < 50 nM

CCn1ccc2c(NC)c(C(=O)NCCc3ccc(N4CC5CCC(C4)N5)cc3)nnc21 [Compound I-27]
IC50 (USP28): < 50 nM
IC50 (USP25): < 50 nM

CCn1ccc2c(NC)c(C(=O)NCCc3ccc(Br)cc3)cnc21 [Compound I-10]
IC50 (USP25): > 10000 nM

CCn1ccc2c(NC)c(C(=O)NC[C@H](C)c3ccc(N4CC5CCC(C4)N5)cc3)cnc21 [Compound I-21]
IC50 (USP28): 50 to 500 nM
IC50 (USP25): 500 to 1000 nM

COc1c(C(=O)NCCc2ccc(N3CC4CCC(C3)N4)cc2)cnc2c1ccn2C [Compound I-31]
IC50 (USP28): 1000 to 10000 nM
IC50 (USP25): > 10000 nM

CCn1cc(Cl)c2c(NC)c(C(=O)NCCc3ccc(N4CC5CCC(C4)N5)cc3)cnc21 [Compound I-30]
IC50 (USP28): < 50 nM
IC50 (USP25): 50 to 500 nM

CCn1ccc2c(Cl)c(C(=O)NCCc3ccc(N4CC5CCC(C4)N5)cc3)cnc21 [Compound I-01, N-4-(3,8-diazabicyclo[3.2.1]octan-3-yl)phenethyl-4-chloro-1-ethyl-1H-pyrrolo[2,3-b]pyridine-5-carboxamide]
IC50 (USP28): 1000 to 10000 nM
IC50 (USP25): 1000 to 10000 nM

CNc1c(C(=O)NCCc2ccc(N3CC4CCC(C3)N4)cc2)cnc2c1ccn2C [Compound I-12]
IC50 (USP28): < 50 nM
IC50 (USP25): 50 to 500 nM

CCn1ccc2c(NC)c(C(=O)NCC(C)(C)c3ccc(N4CC5CCC(C4)N5)cc3F)cnc21 [Compound I-06]
IC50 (USP28): 50 to 500 nM
IC50 (USP25): 500 to 1000 nM

CCn1ccc2c(NC)c(C(=O)N[C@@H]3COc4cc(N5CC6CCC(C5)N6)ccc4C3)cnc21 [Compound I-24]
IC50 (USP28): 50 to 500 nM
IC50 (USP25): 500 to 1000 nM

CCn1ccc2c(NC)c(C(=O)NCCc3ccc(N4CC5CCC(C4)N5)cc3F)cnc21 [Compound I-05]
IC50 (USP28): < 50 nM
IC50 (USP25): 50 to 500 nM

CCCCn1ccc2c(NC)c(C(=O)NCCc3ccc(N4CC5CCC(C4)N5)cc3)cnc21 [Compound I-14]
IC50 (USP28): < 50 nM
IC50 (USP25): < 50 nM

CNc1c(C(=O)NCCc2ccc(N3CC4CCC(C3)N4)cc2)cnc2c1ccn2CC(F)(F)F [Compound I-15]
IC50 (USP28): < 50 nM
IC50 (USP25): < 50 nM

CCn1ccc2c(NC)c(C(=O)NCCc3ccc(N4CC5CCC(C4)N5)cc3F)nnc21 [Compound I-29]
IC50 (USP28): < 50 nM
IC50 (USP25): 50 to 500 nM

CCn1ccc2c(NC)c(C(=O)N[C@H]3CCc4cc(N5CC6CCC(C5)N6)ccc4C3)cnc21 [Compound I-25]
IC50 (USP28): < 50 nM
IC50 (USP25): 50 to 500 nM

CCn1ccc2c(OC)c(C(=O)NCCc3ccc(N4CC5CCC(C4)N5)cc3)cnc21 [Compound I-32]
IC50 (USP28): 50 to 500 nM
IC50 (USP25): 1000 to 10000 nM

CCn1ccc2c(NC)c(C(=O)N[C@H]3COc4cc(N5CC6CCC(C5)N6)ccc4C3)cnc21 [Compound I-23]
IC50 (USP28): < 50 nM
IC50 (USP25): < 50 nM
